Source: PubChem BioAssay AID1963433 (Molecular Pharmacology Branch, DTP, NCI, 2024)

Tested on: 772245-204-R-J1-PDC complex spheroid growth
Assay: Anticancer human tumor 772245-204-R-J1-PDC patient-derived rhabdomyosarcoma cell line growth inhibition [Asc]
Conditions: for IC50: curve of first compound; for viability, T/C: stronger effect = lower value
Procedure, shortened: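 Tumor cells were grown as multicellular spheroids with stromal HUVEC and mesenchymal stem cells and treated singly or in combination. Concentrations fell in half-log steps from the clinical Cmax, or from 10 microM where none was known.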
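Also: compound exposure lasted seven days.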
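For viability, T/C in this document: 100% = DMSO vehicle control viability.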

Q: For NC(=O)C(=Cn1cnc(-c2cc(C(F)(F)F)cc(C(F)(F)F)c2)n1)c1cncnc1 + CNC(C)C(=O)NC1CN(S(=O)(=O)c2cccc(S(=O)(=O)N3CCC4CCC(C(=O)NC(c5ccccc5)c5ccccc5)N4C(=O)C(NC(=O)C(C)NC)C3)c2)CCC2CCC(C(=O)NC(c3ccccc3)c3ccccc3)N2C1=O, which IC50 (second compound 0.01 µM) is on record?
A: Its IC50 is > 0.3 µM.

Q: And the IC50 (second compound 0.0316 µM)?
A: The IC50 was > 0.3 µM.

Q: And the IC50 (second compound 0.1 µM)?
A: The IC50 was > 0.3 µM.

Q: And the IC50 (second compound 0.316 µM)?
A: Its IC50 is > 0.3 µM.

Q: And the IC50 (second compound 1 µM)?
A: The IC50 was > 0.3 µM.

Q: And the viability, T/C (second compound 0.01 µM, first compound 0.000949 µM)?
A: Its viability, T/C is 96.8%.

Q: What about the viability, T/C (second compound 0.01 µM, first compound 0.003 µM) of the same compound?
A: The viability, T/C was 107%.

Q: And the viability, T/C (second compound 0.01 µM, first compound 0.00949 µM)?
A: Its viability, T/C is 100%.

Q: And the viability, T/C (second compound 0.01 µM, first compound 0.03 µM)?
A: The viability, T/C was 84.2%.

Q: What about the viability, T/C (second compound 0.01 µM, first compound 0.0949 µM) of the same compound?
A: The viability, T/C was 62.2%.

Q: What about the viability, T/C (second compound 0.01 µM, first compound 0.3 µM) of the same compound?
A: Its viability, T/C is 68.5%.

Q: And the viability, T/C (second compound 0.0316 µM, first compound 0.000949 µM)?
A: The viability, T/C was 92.9%.

Q: And the viability, T/C (second compound 0.0316 µM, first compound 0.003 µM)?
A: The viability, T/C was 114%.

Q: What about the viability, T/C (second compound 0.0316 µM, first compound 0.00949 µM) of the same compound?
A: The viability, T/C was 100%.

Q: What about the viability, T/C (second compound 0.0316 µM, first compound 0.03 µM) of the same compound?
A: Its viability, T/C is 77.2%.

Q: And the viability, T/C (second compound 0.0316 µM, first compound 0.0949 µM)?
A: Its viability, T/C is 88.7%.

Q: And the viability, T/C (second compound 0.0316 µM, first compound 0.3 µM)?
A: The viability, T/C was 67.3%.

Q: And the viability, T/C (second compound 0.1 µM, first compound 0.000949 µM)?
A: Its viability, T/C is 97.8%.

Q: What about the viability, T/C (second compound 0.1 µM, first compound 0.003 µM) of the same compound?
A: Its viability, T/C is 98.9%.

Q: What about the viability, T/C (second compound 0.1 µM, first compound 0.00949 µM) of the same compound?
A: Its viability, T/C is 91.9%.

Q: What about the viability, T/C (second compound 0.1 µM, first compound 0.03 µM) of the same compound?
A: The viability, T/C was 80.9%.

Q: And the viability, T/C (second compound 0.1 µM, first compound 0.0949 µM)?
A: The viability, T/C was 57.3%.

Q: What about the viability, T/C (second compound 0.1 µM, first compound 0.3 µM) of the same compound?
A: Its viability, T/C is 71.7%.

Q: What about the viability, T/C (second compound 0.316 µM, first compound 0.000949 µM) of the same compound?
A: The viability, T/C was 95.3%.

Q: What about the viability, T/C (second compound 0.316 µM, first compound 0.003 µM) of the same compound?
A: The viability, T/C was 97.2%.

Q: What about the viability, T/C (second compound 0.316 µM, first compound 0.00949 µM) of the same compound?
A: The viability, T/C was 86.2%.

Q: And the viability, T/C (second compound 0.316 µM, first compound 0.03 µM)?
A: Its viability, T/C is 77.8%.

Q: And the viability, T/C (second compound 0.316 µM, first compound 0.0949 µM)?
A: Its viability, T/C is 62%.

Q: What about the viability, T/C (second compound 0.316 µM, first compound 0.3 µM) of the same compound?
A: The viability, T/C was 69.3%.

Q: What about the viability, T/C (second compound 1 µM, first compound 0.000949 µM) of the same compound?
A: Its viability, T/C is 99.2%.

Q: And the viability, T/C (second compound 1 µM, first compound 0.003 µM)?
A: Its viability, T/C is 97.2%.

Q: What about the viability, T/C (second compound 1 µM, first compound 0.00949 µM) of the same compound?
A: Its viability, T/C is 94.4%.

Q: And the viability, T/C (second compound 1 µM, first compound 0.03 µM)?
A: Its viability, T/C is 102%.

Q: What about the viability, T/C (second compound 1 µM, first compound 0.0949 µM) of the same compound?
A: Its viability, T/C is 78.3%.

Q: And the viability, T/C (second compound 1 µM, first compound 0.3 µM)?
A: The viability, T/C was 56.7%.

Q: For NC1CCC(NC2CC2c2ccccc2)CC1 (stereo not given) + CNC(C)C(=O)NC1CN(S(=O)(=O)c2cccc(S(=O)(=O)N3CCC4CCC(C(=O)NC(c5ccccc5)c5ccccc5)N4C(=O)C(NC(=O)C(C)NC)C3)c2)CCC2CCC(C(=O)NC(c3ccccc3)c3ccccc3)N2C1=O, which IC50 (second compound 0.01 µM) is on record?
A: The IC50 was > 0.1 µM.

Q: What about the IC50 (second compound 0.0316 µM) of the same compound?
A: Its IC50 is > 0.1 µM.

Q: And the IC50 (second compound 0.1 µM)?
A: The IC50 was > 0.1 µM.

Q: And the IC50 (second compound 0.316 µM)?
A: Its IC50 is > 0.1 µM.

Q: And the IC50 (second compound 1 µM)?
A: Its IC50 is > 0.1 µM.

Q: And the viability, T/C (second compound 0.01 µM, first compound 0.000316 µM)?
A: The viability, T/C was 111%.

Q: And the viability, T/C (second compound 0.01 µM, first compound 0.001 µM)?
A: The viability, T/C was 104%.

Q: And the viability, T/C (second compound 0.01 µM, first compound 0.00316 µM)?
A: Its viability, T/C is 91.6%.

Q: What about the viability, T/C (second compound 0.01 µM, first compound 0.01 µM) of the same compound?
A: Its viability, T/C is 105%.

Q: And the viability, T/C (second compound 0.01 µM, first compound 0.0316 µM)?
A: The viability, T/C was 98.5%.

Q: And the viability, T/C (second compound 0.01 µM, first compound 0.1 µM)?
A: Its viability, T/C is 89.5%.

Q: What about the viability, T/C (second compound 0.0316 µM, first compound 0.000316 µM) of the same compound?
A: Its viability, T/C is 85.7%.

Q: What about the viability, T/C (second compound 0.0316 µM, first compound 0.001 µM) of the same compound?
A: The viability, T/C was 91.9%.

Q: What about the viability, T/C (second compound 0.0316 µM, first compound 0.00316 µM) of the same compound?
A: Its viability, T/C is 88.5%.

Q: And the viability, T/C (second compound 0.0316 µM, first compound 0.01 µM)?
A: Its viability, T/C is 94.8%.

Q: And the viability, T/C (second compound 0.0316 µM, first compound 0.0316 µM)?
A: Its viability, T/C is 90.7%.

Q: And the viability, T/C (second compound 0.0316 µM, first compound 0.1 µM)?
A: The viability, T/C was 88%.

Q: And the viability, T/C (second compound 0.1 µM, first compound 0.000316 µM)?
A: Its viability, T/C is 92%.

Q: What about the viability, T/C (second compound 0.1 µM, first compound 0.001 µM) of the same compound?
A: The viability, T/C was 103%.

Q: What about the viability, T/C (second compound 0.1 µM, first compound 0.00316 µM) of the same compound?
A: The viability, T/C was 87.5%.

Q: What about the viability, T/C (second compound 0.1 µM, first compound 0.01 µM) of the same compound?
A: Its viability, T/C is 88.4%.

Q: What about the viability, T/C (second compound 0.1 µM, first compound 0.0316 µM) of the same compound?
A: Its viability, T/C is 90.9%.

Q: And the viability, T/C (second compound 0.1 µM, first compound 0.1 µM)?
A: Its viability, T/C is 82.2%.

Q: And the viability, T/C (second compound 0.316 µM, first compound 0.000316 µM)?
A: The viability, T/C was 97.1%.

Q: And the viability, T/C (second compound 0.316 µM, first compound 0.001 µM)?
A: Its viability, T/C is 90.1%.

Q: And the viability, T/C (second compound 0.316 µM, first compound 0.00316 µM)?
A: Its viability, T/C is 102%.

Q: What about the viability, T/C (second compound 0.316 µM, first compound 0.01 µM) of the same compound?
A: The viability, T/C was 86.9%.

Q: What about the viability, T/C (second compound 0.316 µM, first compound 0.0316 µM) of the same compound?
A: Its viability, T/C is 88.3%.

Q: And the viability, T/C (second compound 0.316 µM, first compound 0.1 µM)?
A: Its viability, T/C is 98.7%.

Q: And the viability, T/C (second compound 1 µM, first compound 0.000316 µM)?
A: Its viability, T/C is 100%.

Q: And the viability, T/C (second compound 1 µM, first compound 0.001 µM)?
A: Its viability, T/C is 88.1%.

Q: What about the viability, T/C (second compound 1 µM, first compound 0.00316 µM) of the same compound?
A: Its viability, T/C is 92.9%.

Q: What about the viability, T/C (second compound 1 µM, first compound 0.01 µM) of the same compound?
A: Its viability, T/C is 86.6%.

Q: What about the viability, T/C (second compound 1 µM, first compound 0.0316 µM) of the same compound?
A: Its viability, T/C is 78.9%.

Q: And the viability, T/C (second compound 1 µM, first compound 0.1 µM)?
A: Its viability, T/C is 91.2%.
